Data set [1] has as its system 3T3-L1. Put plainly: Downregulation of C/EBPalpha protein expression in mouse 3T3L1 cells by SDS-PAGE analysis. The format is functional, cell-based.
Data set [2] has as its system 3T3-L1. Kind of data set: Antiadipogenic activity in differentiated mouse 3T3L1 cells assessed as reduction in triglyceride levels at 50 uM after 8 days by oil red o-staining based spectrophotometric analysis relative to control. The format is functional. Details: scale not given: the % may be the effect or the level left.
For data set [3], the system named is 3T3-L1. Kind of data set: Antiadipogenic activity in mouse 3T3L1 cells assessed as suppression of adipocyte differentiation at 30 uM after 8 days by oil red o-staining based spectrophotometric analysis. The format is functional.
The subject of data set [4] is 3T3-L1. Kind of data set: Downregulation of C/EBPalpha mRNA expression in mouse 3T3L1 cells by qRT-PCR analysis. The format is functional, cell-based. In general terms: Real-time PCR tracks product formation cycle by cycle.
In data set [5] the test system is 3T3-L1. Kind of data set: Cytotoxicity against mouse 3T3L1 cells assessed as reduction in cell viability at 10 to 50 uM after 48 hrs by SRB assay. The format is cell-based. The conditions noted are these: 3t3-l1, 48 h. On the technique in general: The SRB assay estimates cell density from bound dye.
The test system of data set [6] is 3T3-L1. Kind of data set: Cytotoxicity against mouse 3T3L1 cells assessed as reduction in cell viability at =<50 uM after 48 hrs by SRB assay. The note with it: 3t3-l1, 48 h. The format is cell-based.
Data set [7] addresses T1, 5'-AMP-activated protein kinase (Mus musculus) (UniProt Q5EG47+Q8BRK8+Q6PAM0+O54950+Q91WG5+Q9R078+Q8BGM7). Kind of data set: Induction of AMPK phosphorylation in mouse 3T3L1 cells at 30 uM by SDS-PAGE analysis. The format is cell-based. The conditions noted are these: 3T3-L1.
The subject of data set [8] is 3T3-L1. Put plainly: Downregulation of PPARgamma mRNA expression in mouse 3T3L1 cells by qRT-PCR analysis. The format is functional, cell-based.
In data set [9] the test system is 3T3-L1. Put plainly: Antiadipogenic activity in mouse 3T3L1 cells assessed as suppression of adipocyte differentiation after 8 days by oil red o-staining based spectrophotometric analysis. The format is functional, cell-based.
The subject of data set [10] is 3T3-L1. Put plainly: Downregulation of PPARgamma protein expression in mouse 3T3L1 cells by SDS-PAGE analysis. The format is functional, cell-based.
The subject of data set [11] is 3T3-L1. Put plainly: Induction of glucose uptake in differentiated mouse 3T3L1 cells at 50 uM preincubated for 20 mins followed by 2-deoxyglucose addition measured after 20 mins by fluorescence assay relative to control. The format is functional.
Data set [12] has as its system 3T3-L1. Put plainly: Antiadipogenic activity in differentiated mouse 3T3L1 cells assessed as reduction in triglyceride levels at 30 uM after 8 days by oil red o-staining based spectrophotometric analysis relative to control. The format is functional. Details: scale not given: the % may be the effect or the level left.
Data set [13] has as its system 3T3-L1. Put plainly: Induction of glucose uptake in differentiated mouse 3T3L1 cells at 30 uM preincubated for 20 mins followed by 2-deoxyglucose addition measured after 20 mins by fluorescence assay relative to control. The format is functional.
In data set [14] the test system is 3T3-L1. Kind of data set: Antiadipogenic activity in differentiated mouse 3T3L1 cells assessed as reduction in triglyceride levels at 20 uM after 8 days by oil red o-staining based spectrophotometric analysis relative to control. Details: scale not given: the % may be the effect or the level left. The format is functional.
For data set [15], the system named is 3T3-L1. Put plainly: Antiadipogenic activity in mouse 3T3L1 cells assessed as suppression of adipocyte differentiation at 20 uM after 8 days by oil red o-staining based spectrophotometric analysis. The format is functional.
Data set [16] relates to 3T3-L1. Kind of data set: Downregulation of SREBP-1c protein expression in mouse 3T3L1 cells by SDS-PAGE analysis. The format is functional, cell-based.
In data set [17] the target is Alpha glucosidase (Homo sapiens) (UniProt O43451+P10253+P14410+Q2M2H8). Kind of data set: Inhibition of alpha-glucosidase (unknown origin) using […]-alpha-D-glucopyranoside as substrate at 10 to 50 uM preincubated for 10 mins followed by substrate addition measured after 5 mins. The format is protein assay.
For data set [18], the system named is 3T3-L1. Kind of data set: Antiadipogenic activity in mouse 3T3L1 cells assessed as suppression of adipocyte differentiation at 50 uM after 8 days by oil red o-staining based spectrophotometric analysis. The format is functional.
Data set [19] deals with 3T3-L1. Put plainly: Downregulation of SREBP-1c mRNA expression in mouse 3T3L1 cells by qRT-PCR analysis. The format is functional, cell-based.
For data set [20], the target named is T1, 5'-AMP-activated protein kinase (Mus musculus). Put plainly: Induction of AMPK phosphorylation in mouse 3T3L1 cells at 50 uM by SDS-PAGE analysis. The format is cell-based. The note with it: 3T3-L1.

Calls of active or inactive are those of the source. The rule behind the calls is not given here.

As to `CC(C)CC(=O)O[C@@H]1c2c(ccc3ccc(=O)oc23)OC(C)(C)[C@@H]1OC(=O)CC(C)C` (relative stereo), the Activity entry is “Dose-dependent effect” in data set [1]; 65% in data set [2]; 71% in [3]; “Dose-dependent effect” in data set [4]; “Non-Toxic” in data set [5]; “Non-Toxic” in data set [6]. The Activity is 72% in data set [7]; “Dose-dependent effect” in data set [8]; “Dose-dependent effect” in data set [10]; 57% in data set [11]; 67% in [12]; 43% in data set [13]. Moreover, the Activity in data set [14] was 44%; in [15], 33%; in [16], “Dose-dependent effect”; in data set [18], 80%; in data set [19] it was “Dose-dependent effect”; in data set [20], 103%. Moreover, in data set [9], the outcome was Active. Besides, the inhibition entry in [17] is “Active”.

For the origin of these results see ChEMBL document CHEMBL4431387, “Anti-adipogenic and anti-diabetic effects of cis-3',4'-diisovalerylkhellactone isolated from Peucedanum japonicum Thunb leaves in vitro” (Bioorg Med Chem Lett, 2016).
